From patent EP2567943A1, “TITANIUM COAGULANT FOR NATURAL AND WASTE WATER PURIFICATION AND DISINFECTION AND METHOD FOR UTILIZING THEREOF” (Sittec Closed Joint Stock Company (Sittec CJSC), priority 2007, dated 2009)

What was measured:
[1] = acute toxicity (hazard indices); settings: in vivo
Method: (§1) Testing the safe method for producing and utilizing the claimed titanium coagulant (absence of mutagenous impact; sensibilizing, allergenic, carcinogenic, gonadotoxic and other action) was carried out on the base of the State organ SRI of human ecology and environmental hygiene named after A.N. Sysin of the Russian Academy of Medical Sciences (RAMS).
(§2) Particularly, derivatives of aluminium oxychloride (AOC) and aluminium sulfate are monitored in accordance with the aluminium content in potable water. While testing the new coagulant, the same principles for evaluating the titanium coagulant safety as the safety evaluation of coagulants based on aluminium were applied. […]

[2] = hygienic hazard indices in water
Method: as §1, §2
One can see from the Table 22 that the method for producing the titanium coagulant and the coagulant generally are safe by the main hygienic indices, and control of the titanium coagulant content in purified water should be performed in accordance with the titanium and aluminium content therein pursuant to the MAC of 0.1 mg/L and 0.2 mg/L, respectively, established for them.

Compound	LD50 [1]	Min.possi bl [2]	L.conc. ([2]; retardation)	L.conc. ([2]; taint)	MAC [2]	L.conc. ([2]; muddiness)
Titanium	150 mg/kg	1.0 mg/kg	0.1 (retardation) mg/L	4.5 (taint) mg/L	–	–
aluminium oxychloride [AOC, reference compound]	–	1.0 mg/kg	1.0 (retardation) mg/L	–	1.5 mg/L	1.45 (muddiness) mg/L
[Al] [Aluminium]	180 to 1360 mg/kg	–	–	–	–	0.2 (muddiness) mg/L
